Results on 20 molecules are retold here after the NIST ThermoML archive (doi:10.1016/j.fluid.2012.11.003).

The nature of data set [1]: excess molar enthalpy (molar enthalpy of mixing); xn = mol fraction of the nth substance listed. The settings on record: 353.15 K, 101 kPa, Liquid, Flow calorimetry.
The nature of data set [2]: activity coefficient (dimensionless); of the first substance listed, at infinite dilution; xn = mol fraction of the nth substance listed. The settings on record: 101 kPa, Liquid, dilutor technique, x1 = 0.

± gives the expanded uncertainty stated by the source.

For `CCOS(=O)(=O)[O-].CCn1cc[n+](C)c1` [1-ethyl-3-methylimidazolium ethyl sulfate] + CCO, the excess molar enthalpy in data set [1] (x2 = 0.0627) is 0.0259 ± 0.000645 kcal/mol; in data set [1] (x2 = 0.1063) it was 0.0446 ± 0.00103 kcal/mol; in data set [1] (x2 = 0.1471) it was 0.0636 ± 0.00141 kcal/mol; in data set [1] (x2 = 0.1979), 0.0845 ± 0.00186 kcal/mol; in data set [1] (x2 = 0.267), 0.109 ± 0.00239 kcal/mol; in data set [1] (x2 = 0.3288), 0.137 ± 0.00287 kcal/mol. Moreover, the excess molar enthalpy came to 0.167 ± 0.00359 kcal/mol in data set [1] (x2 = 0.4017); 0.181 ± 0.00382 kcal/mol in data set [1] (x2 = 0.4504); 0.206 ± 0.00454 kcal/mol in data set [1] (x2 = 0.548); 0.219 ± 0.00478 kcal/mol in data set [1] (x2 = 0.6281); 0.219 ± 0.00478 kcal/mol in data set [1] (x2 = 0.7203); 0.205 ± 0.0043 kcal/mol in data set [1] (x2 = 0.7937). The excess molar enthalpy was determined as 0.174 ± 0.00382 kcal/mol in data set [1] (x2 = 0.8535), 0.13 ± 0.00287 kcal/mol in data set [1] (x2 = 0.9032), 0.0823 ± 0.00182 kcal/mol in data set [1] (x2 = 0.9412) and 0.0327 ± 0.000765 kcal/mol in data set [1] (x2 = 0.9776).
In the case of `CCn1cc[n+](C)c1.COS(=O)(=O)[O-]` [1-ethyl-3-methylimidazolium methylsulfate] + CCO, the excess molar enthalpy in data set [1] (x2 = 0.0977) was 0.033 ± 0.000789 kcal/mol; in data set [1] (x2 = 0.1834), 0.0608 ± 0.00136 kcal/mol; in data set [1] (x2 = 0.249), 0.0835 ± 0.00184 kcal/mol; in data set [1] (x2 = 0.3794), 0.134 ± 0.00287 kcal/mol; in data set [1] (x2 = 0.5247) it was 0.185 ± 0.00406 kcal/mol; in data set [1] (x2 = 0.6059), 0.206 ± 0.00454 kcal/mol. Further, the excess molar enthalpy was 0.218 ± 0.00478 kcal/mol in data set [1] (x2 = 0.701); 0.209 ± 0.00454 kcal/mol in data set [1] (x2 = 0.7779); 0.183 ± 0.00406 kcal/mol in data set [1] (x2 = 0.8414); 0.14 ± 0.00311 kcal/mol in data set [1] (x2 = 0.8947); 0.091 ± 0.00198 kcal/mol in data set [1] (x2 = 0.9358); 0.0381 ± 0.000884 kcal/mol in data set [1] (x2 = 0.9754).
Consider `CCCCO` [butan-1-ol] + CCOS(=O)(=O)[O-].CCn1cc[n+](C)c1, for which the activity coefficient in data set [2] (313.15 K) came out at 1.93 ± 0.14; in data set [2] (323.15 K) it was 1.65 ± 0.12; in data set [2] (333.15 K), 1.39 ± 0.093; in data set [2] (343.15 K), 1.37 ± 0.092; in data set [2] (353.15 K) it was 1.19 ± 0.077.
For `CCCCO` [butan-1-ol] + CCn1cc[n+](C)c1.COS(=O)(=O)[O-], the activity coefficient in data set [2] (323.15 K) stood at 2.62 ± 0.23; in data set [2] (333.15 K), 2.4 ± 0.21; in data set [2] (343.15 K) it was 2.05 ± 0.18; in data set [2] (353.15 K), 1.74 ± 0.12.
For the molecule `CCCCO` [butan-1-ol] + CCn1cc[n+](C)c1.O=S(=O)([O-])O, the activity coefficient in data set [2] (323.15 K) is 0.758 ± 0.052; in data set [2] (333.15 K), 0.62 ± 0.047; in data set [2] (343.15 K) it was 0.43 ± 0.041.
Take `CCC(C)O` (stereo unspecified) [butan-2-ol] + CCOS(=O)(=O)[O-].CCn1cc[n+](C)c1: the activity coefficient in data set [2] (303.15 K) was 2.06 ± 0.18; in data set [2] (313.15 K), 1.83 ± 0.13; in data set [2] (323.15 K), 1.69 ± 0.12; in data set [2] (333.15 K) it was 1.56 ± 0.11; in data set [2] (343.15 K) it was 1.62 ± 0.11; in data set [2] (353.15 K) it was 1.39 ± 0.094.
For `CCC(C)O` (stereo unspecified) [butan-2-ol] + CCn1cc[n+](C)c1.COS(=O)(=O)[O-], the activity coefficient in data set [2] (323.15 K) came to 4.02 ± 0.36; in data set [2] (333.15 K) it was 3.11 ± 0.28; in data set [2] (343.15 K), 2.58 ± 0.23; in data set [2] (353.15 K) it was 2.24 ± 0.2.
For the molecule `CCC(C)O` (stereo unspecified) [butan-2-ol] + CCn1cc[n+](C)c1.O=S(=O)([O-])O, the activity coefficient in data set [2] (323.15 K) stood at 1.22 ± 0.079; in data set [2] (333.15 K), 0.76 ± 0.052; in data set [2] (343.15 K), 0.566 ± 0.045; in data set [2] (353.15 K), 0.452 ± 0.042.
In the case of `CCO` [ethanol] + CCOS(=O)(=O)[O-].CCn1cc[n+](C)c1, the activity coefficient in data set [2] (303.15 K) came out at 0.866 ± 0.056; in data set [2] (313.15 K), 0.783 ± 0.053; in data set [2] (323.15 K), 0.703 ± 0.05; in data set [2] (333.15 K) it was 0.6 ± 0.046; in data set [2] (343.15 K), 0.554 ± 0.045; in data set [2] (353.15 K), 0.534 ± 0.044.
Take `CCO` [ethanol] + CCn1cc[n+](C)c1.COS(=O)(=O)[O-]: the activity coefficient in data set [2] (323.15 K) came out at 0.449 ± 0.042; in data set [2] (333.15 K), 0.398 ± 0.041; in data set [2] (343.15 K), 0.349 ± 0.039; in data set [2] (353.15 K), 0.303 ± 0.039.
In the case of `CCO` [ethanol] + CCn1cc[n+](C)c1.O=S(=O)([O-])O, the activity coefficient in data set [2] (313.15 K) turned out to be 0.426 ± 0.041; in data set [2] (323.15 K), 0.269 ± 0.039; in data set [2] (333.15 K), 0.177 ± 0.039; in data set [2] (343.15 K), 0.13 ± 0.039; in data set [2] (353.15 K), 0.116 ± 0.039.
Turning to `CO` [methanol] + CCOS(=O)(=O)[O-].CCn1cc[n+](C)c1, the activity coefficient in data set [2] (303.15 K) came out at 0.537 ± 0.044; in data set [2] (313.15 K), 0.419 ± 0.041; in data set [2] (323.15 K), 0.406 ± 0.041; in data set [2] (333.15 K) it was 0.41 ± 0.041; in data set [2] (343.15 K), 0.389 ± 0.04; in data set [2] (353.15 K), 0.339 ± 0.039.
As to `CO` [methanol] + CCn1cc[n+](C)c1.COS(=O)(=O)[O-], the activity coefficient in data set [2] (323.15 K) came to 0.257 ± 0.039; in data set [2] (333.15 K), 0.203 ± 0.039; in data set [2] (343.15 K), 0.178 ± 0.039; in data set [2] (353.15 K) it was 0.105 ± 0.039.
Take `CO` [methanol] + CCn1cc[n+](C)c1.O=S(=O)([O-])O: the activity coefficient in data set [2] (323.15 K) amounted to 0.087 ± 0.039; in data set [2] (333.15 K) it was 0.078; in data set [2] (343.15 K), 0.058; in data set [2] (353.15 K), 0.041.
On to `CCCO` [propan-1-ol] + CCOS(=O)(=O)[O-].CCn1cc[n+](C)c1, for which the activity coefficient in data set [2] (303.15 K) came out at 1.31 ± 0.087; in data set [2] (313.15 K), 1.2 ± 0.078; in data set [2] (323.15 K) it was 1.03 ± 0.064; in data set [2] (333.15 K), 0.914 ± 0.058; in data set [2] (343.15 K) it was 0.855 ± 0.055; in data set [2] (353.15 K) it was 0.803 ± 0.054.
`CCCO` [propan-1-ol] + CCn1cc[n+](C)c1.COS(=O)(=O)[O-]: the activity coefficient in data set [2] (323.15 K) was 1.05 ± 0.066; in data set [2] (333.15 K), 0.975 ± 0.06; in data set [2] (343.15 K) it was 0.839 ± 0.055; in data set [2] (353.15 K) it was 0.705 ± 0.05.
Regarding `CCCO` [propan-1-ol] + CCn1cc[n+](C)c1.O=S(=O)([O-])O, the activity coefficient in data set [2] (323.15 K) stood at 0.431 ± 0.041; in data set [2] (333.15 K), 0.338 ± 0.039; in data set [2] (343.15 K), 0.233 ± 0.039; in data set [2] (353.15 K) it was 0.196 ± 0.039.
Consider `CC(C)O` [propan-2-ol] + CCOS(=O)(=O)[O-].CCn1cc[n+](C)c1, for which the activity coefficient in data set [2] (303.15 K) was 1.48 ± 0.1; in data set [2] (313.15 K), 1.31 ± 0.087; in data set [2] (323.15 K), 1.25 ± 0.082; in data set [2] (333.15 K), 1.04 ± 0.065; in data set [2] (343.15 K) it was 1.01 ± 0.062; in data set [2] (353.15 K), 0.966 ± 0.06.
As for `CC(C)O` [propan-2-ol] + CCn1cc[n+](C)c1.COS(=O)(=O)[O-], the activity coefficient in data set [2] (323.15 K) was 1.33 ± 0.089; in data set [2] (333.15 K), 1.17 ± 0.075; in data set [2] (343.15 K) it was 1.01 ± 0.062; in data set [2] (353.15 K), 0.84 ± 0.055.
The matching figures for `CC(C)O` [propan-2-ol] + CCn1cc[n+](C)c1.O=S(=O)([O-])O: 0.577 ± 0.046, 0.356 ± 0.04, 0.278 ± 0.039 and 0.223 ± 0.039.
